Values quoted from earlier work in PubChem BioAssay AID1259409 (Chemical Carcinogenesis Research Information System (CCRIS), 2018).

Tested on: rodent chemically induced tumor inhibition, incidence and multiplicity
Assay: CCRIS tumor inhibitor studies
Conditions: Dose [Inhibitor]: 0, Route [Inhibitor]: ORAL, Species: RAT

**Q.** With `COc1ccc([C@@H]2CC(=O)c3c(O)cc(O[C@@H]4O[C@H](CO[C@@H]5O[C@@H](C)[C@H](O)[C@@H](O)[C@H]5O)[C@@H](O)[C@H](O)[C@H]4O)cc3O2)cc1O` as the compound, how does the “tumour outcome (control, treated, inhibition, significance)” value (Carcinogen: 4-NITROQUINOLINE-1-OXIDE, 56-57-5, 500 PPM IN DIET FOR 10 WK BEGINNING 1 WK PRIOR TO CARCINOGEN TREATMENT (STUDY DURATION: 32 WK), Strain/Sex: F344/MALE, Target Tissue: Type of Lesion: TONGUE: CARCINOMA, Dose [Carcinogen]: 20 PPM IN DRINKING WATER FOR 8 WK, Promoter: NONE USED) read?
**A.** 13/24 (54%), 4/18 (22%), 59%, p<0.05

**Q.** And the “tumour outcome (control, treated, inhibition, significance)” value (Carcinogen: 4-NITROQUINOLINE-1-OXIDE, 56-57-5, 500 PPM IN DIET FOR 10 WK BEGINNING 1 WK PRIOR TO CARCINOGEN TREATMENT (STUDY DURATION: 32 WK), Strain/Sex: F344/MALE, Target Tissue: Type of Lesion: TONGUE: PAPILLOMA, Dose [Carcinogen]: 20 PPM IN DRINKING WATER FOR 8 WK, Promoter: NONE USED)?
**A.** 4/24 (17%), 2/18 (11%), 35%, not significant

**Q.** And the “tumour outcome (control, treated, inhibition, significance)” value (Carcinogen: 4-NITROQUINOLINE-1-OXIDE, 56-57-5, 500 PPM IN DIET FOR 22 WK BEGINNING 1 WK POST CARCINOGEN TREATMENT (STUDY DURATION: 32 WK), Strain/Sex: F344/MALE, Target Tissue: Type of Lesion: TONGUE: CARCINOMA, Dose [Carcinogen]: 20 PPM IN DRINKING WATER FOR 8 WK, Promoter: NONE USED)?
**A.** 13/24 (54%), 8/19 (42%), 22%, not significant

**Q.** What about the “tumour outcome (control, treated, inhibition, significance)” value (Carcinogen: 4-NITROQUINOLINE-1-OXIDE, 56-57-5, 500 PPM IN DIET FOR 22 WK BEGINNING 1 WK POST CARCINOGEN TREATMENT (STUDY DURATION: 32 WK), Strain/Sex: F344/MALE, Target Tissue: Type of Lesion: TONGUE: PAPILLOMA, Dose [Carcinogen]: 20 PPM IN DRINKING WATER FOR 8 WK, Promoter: NONE USED) of the same compound?
**A.** 4/24 (17%), 1/19 (5%), 71%, not significant

**Q.** What about the “tumour outcome (control, treated, inhibition, significance)” value (Carcinogen: 4-NITROQUINOLINE-1-OXIDE, 56-57-5, 1000 PPM IN DIET FOR 10 WK BEGINNING 1 WK PRIOR TO CARCINOGEN TREATMENT (STUDY DURATION: 32 WK), Strain/Sex: F344/MALE, Target Tissue: Type of Lesion: TONGUE: PAPILLOMA, Dose [Carcinogen]: 20 PPM IN DRINKING WATER FOR 8 WK, Promoter: NONE USED) of the same compound?
**A.** 8/17 (47%), 1/19 (5%), 89%, p<0.01

**Q.** What about the “tumour outcome (control, treated, inhibition, significance)” value (Carcinogen: 4-NITROQUINOLINE-1-OXIDE, 56-57-5, 1000 PPM IN DIET FOR 10 WK BEGINNING 1 WK PRIOR TO CARCINOGEN TREATMENT (STUDY DURATION: 32 WK), Strain/Sex: R344/MALE, Target Tissue: Type of Lesion: TONGUE: SQUAMOUS CELL CARCINOMA, Dose [Carcinogen]: 20 PPM IN DRINKING WATER FOR 8 WK, Promoter: NONE USED) of the same compound?
**A.** 11/17 (65%), 3/19 (16%), 75%, p<0.005

**Q.** And the “tumour outcome (control, treated, inhibition, significance)” value (Carcinogen: 4-NITROQUINOLINE-1-OXIDE, 56-57-5, 1000 PPM IN DIET FOR 22 WK BEGINNING 1 WK POST CARCINOGEN TREATMENT (STUDY DURATION: 32 WK), Strain/Sex: F344/MALE, Target Tissue: Type of Lesion: TONGUE: PAPILLOMA, Dose [Carcinogen]: 20 PPM IN DRINKING WATER FOR 8 WK, Promoter: NONE USED)?
**A.** 8/17 (47%), 2/20 (10%), 79%, p<0.05

**Q.** What about the “tumour outcome (control, treated, inhibition, significance)” value (Carcinogen: 4-NITROQUINOLINE-1-OXIDE, 56-57-5, 1000 PPM IN DIET FOR 22 WK BEGINNING 1 WK POST CARCINOGEN TREATMENT (STUDY DURATION: 32 WK), Strain/Sex: F344/MALE, Target Tissue: Type of Lesion: TONGUE: SQUAMOUS CELL CARCINOMA, Dose [Carcinogen]: 20 PPM IN DRINKING WATER FOR 8 WK, Promoter: NONE USED) of the same compound?
**A.** 11/17 (65%), 5/20 (25%), 62%, p<0.05

**Q.** What about the “tumour outcome (control, treated, inhibition, significance)” value (Carcinogen: AZOXYMETHANE, 25843-45-2, 0.1% IN DIET FOR 4 WK BEGINNING 1 WK PRIOR TO CARCINOGEN TREATMENT (STUDY DURATION: 32 WK), Strain/Sex: F344/MALE, Target Tissue: Type of Lesion: COLON: ADENOCARCINOMA, Dose [Carcinogen]: 15 MG/KG BW 1/WK FOR 3 WK, Promoter: NONE) of the same compound?
**A.** 70%, 5%, 93%, p<0.001

**Q.** What about the “tumour outcome (control, treated, inhibition, significance)” value (Carcinogen: AZOXYMETHANE, 25843-45-2, 0.1% IN DIET FOR 28 WK BEGINNING 1 WK POST LAST CARCINOGEN DOSE (STUDY DURATION: 32 WK), Strain/Sex: F344/MALE, Target Tissue: Type of Lesion: COLON: ADENOCARCINOMA, Dose [Carcinogen]: 15 MG/KG BW 1/WK FOR 3 WK, Promoter: NONE) of the same compound?
**A.** 70%, 17%, 76%, p<0.005

**Q.** And the “tumour outcome (control, treated, inhibition, significance)” value (Carcinogen: AZOXYMETHANE, 25843-45-2, 1000 PPM IN DIET FOR 4 WK BEGINNING 1 WK PRIOR TO CARCINOGEN TREATMENT (STUDY DURATION: 32 WK), Strain/Sex: F344/MALE, Target Tissue: Type of Lesion: LARGE INTESTINE: TUMOR, Dose [Carcinogen]: 15 MG/KG BW 1/WK FOR 3 WK, Promoter: NONE USED)?
**A.** 12/17 (71%), 3/19 (16%), 77%, p<0.001

**Q.** And the “tumour outcome (control, treated, inhibition, significance)” value (Carcinogen: AZOXYMETHANE, 25843-45-2, 1000 PPM IN DIET FOR 4 WK BEGINNING 1 WK PRIOR TO CARCINOGEN TREATMENT (STUDY DURATION: 32 WK), Strain/Sex: F344/MALE, Target Tissue: Type of Lesion: SMALL INTESTINE: TUMOR, Dose [Carcinogen]: 15 MG/KG BW 1/WK FOR 3 WK, Promoter: NONE USED)?
**A.** 5/17 (29%), 1/19 (5%), 83%, not significant

**Q.** What about the “tumour outcome (control, treated, inhibition, significance)” value (Carcinogen: AZOXYMETHANE, 25843-45-2, 1000 PPM IN DIET FOR 28 WK BEGINNING 1 WK POST CARCINOGEN TREATMENT (STUDY DURATION: 32 WK), Strain/Sex: F344/MALE, Target Tissue: Type of Lesion: LARGE INTESTINE: TUMOR, Dose [Carcinogen]: 15 MG/KG BW 1/WK FOR 3 WK, Promoter: NONE USED) of the same compound?
**A.** 12/17 (71%), 3/20 (15%), 79%, p<0.001
